# Results published in US11007167B2, “Methods of treating multiple sclerosis” (Biogen MA Inc., priority 2014, dated 2021).
# “Also recorded” adds a separate entry of the source. Counter-ions that a name gives are not always drawn.
# Tests used:
# [1] = system: JCV; settings: literature report; cited from earlier work
# [2] = system: MS patients; experiment: Serious infections by worst post-baseline CTC grade (Phase 2b, DEFINE, CONFIRM, ENDORSE); format: in vivo, human
# Source text: The Phase 2b study, […], and CONFIRM were multicenter, randomized, double-blind, placebo-controlled, parallel-group clinical trials of DMF as monotherapy for RRMS. ALCs were graded per Common Terminology Criteria for Adverse Events (CTCAE; Table 9).^9
# [3] = system: patients with RRMS; experiment: Annualized relapse rate / clinical efficacy in DEFINE and CONFIRM; format: in vivo, human; settings: DMF 240 mg BID; for Rate ratio (95% CI) for adjusted ARR for DMF versus placebo: 2 years
# Source text: FIGS. 4A-4B depict reduction in ARR at 2 years in DEFINE (FIG. 4A) and CONFIRM (FIG. 4B) in patients in the DMF BID group with lymphopenia (at least 1 ALC less than LLN) or without lymphopenia (all ALCs greater than or equal to LLN) compared with all patients in placebo group. ARR=annualized relapse rate; CI=confidence interval. ^aDMF is delayed-release DMF (also known as gastro-resistant DMF, and as TECFIDERA®). ^bBased on negative binomial regression, adjusted for study, baseline EDSS (≤2.0 vs >2.0), baseline age (<40 vs ≥40), region, and number of relapses in the 1 year prior to study entry.
# (§1) The Phase 2b study, DEFINE, and CONFIRM were multicenter, randomized, double-blind, placebo-controlled, parallel-group clinical trials of DMF as monotherapy for RRMS.
# (§2) DEFINE and CONFIRM were 2 years in duration. Patients were randomized equally to DMF 240 mg twice daily (BID), 240 mg TID, or matching placebo.
# [4] = system: patient with MS; experiment: Occurrence of progressive multifocal leukoencephalopathy (PML) in treated MS patients; settings: prolonged lymphopenia
# [5] = system: patients with RRMS; settings: DEFINE Phase 3 study; after two years of treatment; cited from earlier work
# [6] = system: MS patients; experiment: Absolute lymphocyte count (ALC) profiles in DMF-treated MS patients (Phase 2b, DEFINE, CONFIRM, ENDORSE); format: in vivo, human
# Procedure: as §1
# The Phase 2b study was 12 months in duration, including a 6-month placebo-controlled part (Part 1) and a 6-month uncontrolled safety extension part (Part 2). During Part 1, patients were randomized equally to DMF 120 mg once daily (QD), 120 mg three times daily (TID), 240 mg TID, or placebo.
# as §2
# ENDORSE is a multicenter, parallel-group, dose-blinded extension of DEFINE/CONFIRM with up to 8 additional years of follow-up.
# In the Phase 2b study, blood was collected every 4 weeks.
# In DEFINE and CONFIRM, blood was collected every 4 weeks for the first 3 months and every 12 weeks thereafter, and within 1 month after study withdrawal or study completion if not continuing in the extension study.
# In ENDORSE, blood was collected at baseline and every 12 weeks thereafter
# ALCs were graded per Common Terminology Criteria for Adverse Events (CTCAE; Table 9).^9
# Data from DEFINE and CONFIRM after subjects switched to alternative MS treatment were excluded.
# Data from the 6-month uncontrolled safety extension of the Phase 2b study were included.
# [7] = system: healthy volunteer; experiment: Healthy volunteer study: aspirin prior to DMF dosing (flushing); format: in vivo, human; settings: 325 mg non-enteric coated aspirin 30 minutes prior to DMF dosing
# Procedure: In a specific embodiment, a NSAID (e.g., aspirin) is administered concurrently, before, and/or after administration of the fumarate (e.g., DMF). […] Some subjects who experience flushing with gastrointestinal side effects may reduce the dose to 120 mg DMF BID temporarily. Within a month, the effective dose of 240 mg DMF BID or 240 mg DMF TID should be resumed.
# [8] = percentage of the number with worst post-baseline count in that grade
# [9] = All ALCs ≥ 500/mm^3 within the first 1 year
# [10] = All ALCs ≥ 500/mm^3 within the first 6 months
# [11] = All ALCs ≥ 800/mm^3 within the first 1 year
# [12] = All ALCs ≥ 800/mm^3 within the first 6 months
# [13] = At least 1 ALC < 500/mm^3 (row r11) within the first 1 year
# [14] = At least 1 ALC < 500/mm^3 (row r12) within the first 1 year
# [15] = At least 1 ALC < 500/mm^3 (row r12) within the first 6 months
compound,measurement,setting,value
"CCCCCCCCCCCCCCCCOCCCOP(=O)(O)CO[C@H](CO)Cn1ccc(N)nc1=O [CMX001, Hexadecyloxypropyl-Cidofovir]",Effect on JCV replication,[1],suppress JVC by inhibiting viral DNA replication
"COC(=O)/C=C/C(=O)OC [DMF, dimethyl fumarate]","Association of lymphopenia with risk of infections, serious infections, opportunistic infections","[2]; interim analysis of Phase 2b, DEFINE, CONFIRM, ENDORSE",not associated with an overall increased risk of infections or serious infections
same,"Serious infections, worst post-baseline CTC grade 0, %",[2]; [8],(3) %
same,"Serious infections, worst post-baseline CTC grade 1, %",[2]; [8],(5.5) %
same,"Serious infections, worst post-baseline CTC grade 2, %",[2]; [8],(4) %
same,"Serious infections, worst post-baseline CTC grade 3 or 4, %",[2]; [8],(3) %
same,Rate ratio (95% CI) for adjusted ARR for DMF versus placebo,"[3]; CONFIRM, patients with treatment-associated lymphopenia","0.525 (0.365, 0.756)"
same,Rate ratio (95% CI) for adjusted ARR for DMF versus placebo,"[3]; CONFIRM, patients without lymphopenia","0.599 (0.429, 0.835)"
same,Rate ratio (95% CI) for adjusted ARR for DMF versus placebo,"[3]; DEFINE, patients with treatment-associated lymphopenia","0.424 (0.294, 0.611)"
same,Rate ratio (95% CI) for adjusted ARR for DMF versus placebo,"[3]; DEFINE, patients without lymphopenia","0.509 (0.381, 0.681)"
same,"Reduction in ARR at 2 years versus placebo, patients with versus without lymphopenia",[3]; DEFINE and CONFIRM,not substantially different
same,Cases of PML,"[4]; MS patient in clinical trial, severe",a case of PML
same,Lymphocyte counts of the patient who developed PML,[4]; 3.5 years duration,less than 0.5×10^9 /L
same,"Clinical relapses, disability progression, lesion number and volume compared with placebo",[5],"significantly reduced clinical relapses, accumulation of disability progression, and lesion number and volume"
same,ALCs after discontinuation of treatment (following final dose),[6]; 9 patients with ALCs < 500 cells/μL for at least 6 months who discontinued or completed the study,ALCs generally increased; also recorded: All 9 patients showed increases in ALCs; also recorded: evidence of ALC improvement
same,"Patients who subsequently developed ALCs < 500/mm^3 persisting ≥ 6 months at any time, %",[6]; [9],(0.7) %
same,"Patients who subsequently developed ALCs < 500/mm^3 persisting ≥ 6 months at any time, n/N",[6]; [9],16/2409
same,"Patients who subsequently developed ALCs < 500/mm^3 persisting ≥ 6 months at any time, %",[6]; [10],(1.5) %
same,"Patients who subsequently developed ALCs < 500/mm^3 persisting ≥ 6 months at any time, n/N",[6]; [10],37/2446
same,"Patients who subsequently developed ALCs < 500/mm^3 persisting ≥ 6 months at any time, %",[6]; [11],(0) %
same,"Patients who subsequently developed ALCs < 500/mm^3 persisting ≥ 6 months at any time, n/N",[6]; [11],0/2050
same,"Patients who subsequently developed ALCs < 500/mm^3 persisting ≥ 6 months at any time, %",[6]; [12],(0.4) %
same,"Patients who subsequently developed ALCs < 500/mm^3 persisting ≥ 6 months at any time, n/N",[6]; [12],9/2219
same,"Patients who subsequently developed ALCs < 500/mm^3 persisting ≥ 6 months at any time, n/N",[6]; All ALCs ≥ LLN within the first 1 year of treatment,0/1876
same,"Patients who subsequently developed ALCs < 500/mm^3 persisting ≥ 6 months at any time, n/N",[6]; All ALCs ≥ LLN within the first 6 months of treatment,3/2083
same,"Patients who subsequently developed ALCs < 500/mm^3 persisting ≥ 6 months at any time, %",[6]; [13],(17) %
same,"Patients who subsequently developed ALCs < 500/mm^3 persisting ≥ 6 months at any time, n/N",[6]; [13],47/420
same,"Patients who subsequently developed ALCs < 500/mm^3 persisting ≥ 6 months at any time, %",[6]; At least 1 ALC < 500/mm^3 (row r11) within the first 6 months,(10) %
same,"Patients who subsequently developed ALCs < 500/mm^3 persisting ≥ 6 months at any time, %",[6]; [14],(51) %
same,"Patients who subsequently developed ALCs < 500/mm^3 persisting ≥ 6 months at any time, n/N",[6]; [14],31/61
same,"Patients who subsequently developed ALCs < 500/mm^3 persisting ≥ 6 months at any time, %",[6]; [15],(42) %
same,"Patients who subsequently developed ALCs < 500/mm^3 persisting ≥ 6 months at any time, n/N",[6]; [15],10/24
same,"Patients who subsequently developed ALCs < 500/mm^3 persisting ≥ 6 months at any time, n/N",[6]; At least 1 ALC < 500/mm^3 within the first 6 months,38/251
same,"Incidence of worst post-baseline ALC CTC grade 0, %","[6]; Total DMF, n = 2513",(61) %
same,"Incidence of worst post-baseline ALC CTC grade 1, %","[6]; Total DMF, n = 2513",(9) %
same,"Incidence of worst post-baseline ALC CTC grade 2, %","[6]; Total DMF, n = 2513",(21) %
same,"Incidence of worst post-baseline ALC CTC grade 3 or 4, %","[6]; Total DMF, n = 2513",(7) %
same,"Patients who experienced ALCs less than 500/mm^3 persisting for greater than or equal to 6 months, %","[6]; among patients treated for ≥ 6 months (N=2,099)",2.2%
same,Patients in whom ALCs remained greater than or equal to LLN,[6]; during the first 6 months,84%
same,Patients in whom ALCs remained greater than or equal to LLN,[6]; during the first year,76%
same,Course of ALCs with continued therapy,[6]; patients with ALCs < 500/mm^3 persisting ≥ 6 months,generally remained less than 500/mm^3
same,Decrease of mean ALCs during the first year of treatment,"[6]; then plateaued, remaining above LLN (910/mm^3) throughout the observation period",approximately 30%
OC(c1cc(C(F)(F)F)nc2c(C(F)(F)F)cccc12)C1CCCCN1 (centres unmarked) [Mefloquine],Effect on JCV replication,[1],block JCV replication without significant toxicity
CC(=O)Oc1ccccc1C(=O)O [aspirin],Occurrence and severity of flushing,[7],reduce the occurrence and severity of flushing
